Legend:
[1] = system: obsessive-compulsive disorder with prevailing anxiety disorders; assay: Study versus Diazepam in obsessive-compulsive disorder (HAM-A, STAI, SAN); assay type: in vivo, human
Description: (§1) A study was conducted to examine the efficacy of the claimed drug, formulated as a water solution (liquid dosage form) of the activated (potentized) energy-treated carrier, obtained by multiple consecutive dilution of the initial matrix solution in an aqueous-alcoholic diluent, combined with external mechanical impact—shaking of each resulting dilution, to a degree of 100^200, equivalent to a centesimal (C200) homeopathic dilution (wherein the energy treatment of the initial neutral carrier has been accomplished by exposing it to an electric current caused by a difference of potentials being applied to electrodes placed in the initial liquid carrier and which is proportional in amplitude to an amplified combined, summed signal, formed by summing the resultant signals—biopotential differences of individual referential derivations recorded in five healthy donors using the internationally recognized 10-20 system, which involves 19 active recording electrodes placed in regular positions all over the scalp and one reference electrode located on the ear-lobe)—further referred to as AP drug—in treating obsessive-compulsive disorder.
The tolerability and anxiolytic efficacy of AP drug was examined versus Diazepam in patients with obsessive-compulsive disorder with prevailing anxiety disorders. Inclusion criteria: • 1. Subjects aged from 18 to 65 years. • 2. Subjects meeting the obsessive-compulsive disorder criteria (ICD-10 code F42). • 3. Subjects receiving no treatment with psychoactive agents at least for a week before and at the time of the trial.
The study included 20 patients (8 men and 12 women) aged between 19 and 62 years old. The mean patient age and mean duration of disease were 38.0±1.6 years and 2.1±0.5 years, respectively.
The duration of treatment was […]. The patients randomized to AP drug (45) received it at a dose of 20 drops 4 times daily; the rest 35 patients were assigned to receive Diazepam at 15 mg daily.
The patients were assessed for OCD symptom severity at baseline (day 0) and at days 7, 14, and 28.

[2] = system: depression in patients with post-traumatic stress disorders; assay: Comparative trial versus Heptral in stress-related depression (HAM-D, HADS, CGI); assay type: in vivo, human; design: CGI Efficacy Index / CGI Severity scale total score / CGI Improvement scale total score: scale not given here
Description: A randomized, […] study was conducted to examine the efficacy and safety of the claimed drug, formulated as a solid dosage form containing lactose granules impregnated with water-alcohol solution of the liquid activated (potentized) energy-treated carrier, obtained by multiple consecutive dilution of the initial matrix solution in an aqueous-alcoholic diluent, combined with external mechanical impact—shaking of each resulting dilution, to a degree of 100^200, equivalent to a centesimal (C200) homeopathic dilution (wherein the energy treatment of the initial liquid carrier has been accomplished by exposing it to an electric current caused by a difference of potentials being applied to electrodes placed in the initial liquid carrier and which is proportional in amplitude to an amplified combined, summed signal, formed by summing the resultant signals—biopotential differences of individual referential derivations recorded in five healthy donors using the internationally recognized 10-20 system, which involves 19 active recording electrodes placed in regular positions all over the scalp and one reference electrode located on the ear-lobe)—further referred to as AP drug, where it was used for treating depression in patients with post-traumatic stress disorders.
AP drug was administered to manage the depressive symptoms—in parallel to Heptral (adametionine), used as a comparator in efficacy assessment. AP drug was administered for 4 weeks at a dose of 2 tablets 4 times daily. Heptral was used at 400 mg 3 times (1200 mg) daily.
An open comparative clinical trial was performed which involved 30 patients (16 men and 14 women) assigned to two parallel groups: 15 patients in the group of AP drug and 15 in the heptral group. The mean age of participants assigned to AP drug was 38.0±4.39 years;
The period of study participation was 8 weeks (the total treatment duration of 4 weeks and 4 weeks of follow-up).
Neither of the patient groups was allowed to take psychoactive medications during the study. The drugs not prohibited for use during the treatment were medications for the underlying traumatic illness and co-existing somatic disorders. The study enrolled inpatients aged from 18 to 65 years old, who had been receiving medical attention for bodily injuries resulting from car accidents, which had taken place under circumstances threatening the life or welfare of the patient or/and their friends or family members suffering from anxiety mental disorders, such as (defined by the ICD-10) reaction to severe stress, and adjustment disorders (F43); adjustment disorders (F43.2); adjustment disorder with mixed anxiety and depressed mood (F43.23).
1. Reduced severity of depressive symptoms and signs as measured by the HADS. 2. Reduced severity of depressive symptoms and signs as measured by the HAM-D 3. Efficacy Index assessment on the Clinical Global Impression (CGI) scale.
The patients' mental health was examined at baseline—at admission to the clinic, following 1, 2 and 4 weeks of treatment, and 4 weeks after treatment discontinuation (follow-up).
The effect of study treatment was evaluated according to changes in the total HAM-D score and scoring outcomes on the HADS anxiety and depression subscales. In addition, the Clinical Global Impression scale was administered to primarily estimate the Efficacy Index for the treatment conducted.

[3] = system: pseudoneurotic disorder in patients with organic brain disease; assay: Study of pseudoneurotic disorder in organic brain disease (anxiety levels, Hamilton scale); assay type: in vivo, human
Description: as §1, with “pseudoneurotic disorder in patients with organic brain disease. […]” for “obsessive-compulsive disorder.”

[4] = system: children with clinical signs and symptoms of a hyperkinetic disorder (HD); assay: Comparative study versus piracetam in children with hyperkinetic disorder (SNAP-IV, TOVA, fine motor skills); assay type: in vivo, human; settings: for TOVA Commission errors, % / TOVA Omission errors, % / TOVA Response time: after two months
Source text: The study included 57 children aged from 6 to 9 years (40 boys and 17 girls), who were nursery/preschool attendants and primary school students.
The inclusion criteria were: 1. Children with clinical signs and symptoms of a hyperkinetic disorder (HD) meeting the ICD-10 criteria (F 90); 2. Age range: 6 to 9 years; 3. At least a medium IQ score (90 points) on the Wechsler Intelligence Scale.
The study excluded children with behavior disturbances related to other mental disorders. Children with HD signs and symptoms who were allocated to the group of test treatment (n=30) received AP drug as a monotherapy, at 2 tablets 3 times daily for 2 months.
This assessment was repeated following two months of treatment with AP drug (test group) and piracetam (control group). The scores obtained were compared with the normative rating results and statistically analyzed (Table 11).
The computer-based psychophysiological TOVA assessment involved three sets of tests measuring inattention (omission errors), impulsivity (commission errors), and speed of information processing (response time). The baseline measurements of HD children were compared with those obtained in the test group (AP drug) and in the control group (piracetam) after two months of treatment.

[5] = system: scopolamine-induced amnesia in male albino Wistar rats; assay: Scopolamine-induced amnesia for passive avoidance conditioning; assay type: in vivo, rat
Description: as §1, with “evaluate” for “examine”, “nootropic effect” for “efficacy”, “liquid” for “neutral”, “drug, using standard experimental approaches—by examining the test drug's antiamnestic effects in scopolamine-induced amnesia for passive avoidance conditioning in sexually mature rats. A total of 36 male albino Wistar rats were used for the study.” for “drug—in treating obsessive-compulsive disorder.”
For amnesia induction, 15 minutes prior to passive avoidance training, the animals were administered a single intraperitoneal dose (2 mg/kg) of a muscarinic receptor antagonist—scopolamine.
AP drug was administered to 12 rats intragastrically, at 2.5 ml/kg daily, prior to training (1 hour before the start of the experiment), immediately after training, 24 hours post training, and 1 hour prior to the passive avoidance recall test. […]
On the memory recall test, the rats' behavior was evaluated by examining: latency time taken by test animals to first enter the dark compartment and total time spent therein over a certain time period.
The conditioning of passive avoidance behavior was as follows: On day 1, the animals were trained to stay in a shuttle box, which consisted of a large, 300×300×250 mm, white illuminated compartment (with transparent walls) and a smaller, 150×150×180 mm, black dark compartment with an electrical grid floor. […] For 3 minutes, the total times of the rat's stay in the small compartment and latency before moving in were recorded. […]
The data gathered were recorded as the mean (M) and standard error of the mean (SEM). […] The results of examining the rats' memory recall were analyzed for statistical significance with the Wilcoxon test. […]

CN1C(=O)CN=C(c2ccccc2)c2cc(Cl)ccc21 [Diazepam]
HAM-A scores ([1]; Day 7): 19.02
HAM-A scores ([1]; Day 14): 12.93
Average reduction of HAM-A scores ([1]; at 28 days): 70.2%
Percentage of patients exhibiting treatment response (50% reduction of mean HAM-A score and over) ([1]; at 28 days): 100%
Mean SAN score ([1]; at treatment completion): 3.6
Occurrence of adverse reactions ([1]; throughout the study): 82.9%
Reduction in trait anxiety scores (STAI) ([1]; treatment completion): 22.3%
Reduction of situational anxiety (STAI) scores ([1]; treatment completion): 29.6%

C[S+](CC[C@H](N)C(=O)[O-])C[C@H]1O[C@@H](n2cnc3c(N)ncnc32)[C@H](O)[C@@H]1O (stereo partly shown) [Heptral, adametionine]
CGI Severity scale total score ([2]; Visit 1 (baseline)): 3.8 ± 0.17
Total HADS depression score ([2]; Visit 1 (baseline), n = 15): 17.5
Total HAM-D score ([2]; Visit 1 (baseline), n = 15): 26.2
CGI Efficacy Index ([2]; Visit 2 (week 1)): 1.1 ± 0.08
CGI Improvement scale total score ([2]; Visit 2 (week 1)): 2.9 ± 0.07
CGI Severity scale total score ([2]; Visit 2 (week 1)): 2.9 ± 0.12
Total HADS depression score ([2]; Visit 2 (week 1)): 13.2
Total HAM-D score ([2]; Visit 2 (week 1)): 23.1
CGI Efficacy Index ([2]; Visit 3 (week 2)): 1.8 ± 0.19
CGI Improvement scale total score ([2]; Visit 3 (week 2)): 2.1 ± 0.15
CGI Severity scale total score ([2]; Visit 3 (week 2)): 1.9 ± 0.12
Total HADS depression score ([2]; Visit 3 (week 2)): 9.6
Total HAM-D score ([2]; Visit 3 (week 2)): 15.6
CGI Efficacy Index ([2]; Visit 4 (week 4)): 2.3 ± 0.18
CGI Improvement scale total score ([2]; Visit 4 (week 4)): 1.2 ± 0.11
CGI Severity scale total score ([2]; Visit 4 (week 4)): 1.1 ± 0.07
Total HADS depression score ([2]; Visit 4 (week 4)): 6.5
Total HAM-D score ([2]; Visit 4 (week 4)): 14.1
CGI Efficacy Index ([2]; Visit 5 (follow-up)): 2.3 ± 0.18
CGI Improvement scale total score ([2]; Visit 5 (follow-up)): 1.1 ± 0.07
CGI Severity scale total score ([2]; Visit 5 (follow-up)): 1.0 ± 0.00
Total HADS depression score ([2]; Visit 5 (follow-up)): 3.5
Total HAM-D score ([2]; Visit 5 (follow-up)): 12.1
Adverse event anxiety worsening ([2]; group of 15): 2 patients
Adverse event dizziness ([2]; group of 15): 5 patients
Adverse event headache ([2]; group of 15): 3 patients

O=C1CN=C(c2ccccc2Cl)c2cc(Br)ccc2N1 [phenazepam]
Hamilton scale score ([3]; after treatment): 31.7±1.5
Hamilton scale score ([3]; baseline score): 32.8±1.4

NC(=O)CN1CCCC1=O [piracetam]
Children with increased disinhibition/excitability ([4]; 2 months): 11.1%
Children with sleep problems ([4]; 2 months): 26%
TOVA Commission errors, % ([4]; First section): 12.5 ± 3.2%
TOVA Omission errors, % ([4]; First section): 13.6 ± 1.4 %
TOVA Response time ([4]; First section): 736 ± 83 ms
TOVA Commission errors, % ([4]; Second section): 21.1 ± 2.7%
TOVA Omission errors, % ([4]; Second section): 17.2 ± 2.8 %
TOVA Response time ([4]; Second section): 656 ± 79 ms
Total score for fine motor skills ([4]; after treatment completion): 1.62 ± 0.16
SNAP-IV Attention problems ([4]; after two months of treatment): 2.48 ± 0.12
SNAP-IV Hyperactivity ([4]; after two months of treatment): 2.41 ± 0.10
SNAP-IV Impulsivity ([4]; after two months of treatment): 2.28 ± 0.22
Latency to enter the aversive compartment ([5]; Memory recall): 53.71 s
Time spent in the black compartment ([5]; Memory recall): 13.11 s
Latency to enter the aversive compartment ([5]; Training): 11.07 s
Time spent in the black compartment ([5]; Training): 21.1 s

— patent US20170333560A1, “Pharmaceutical Composition That Includes A Neutral Carrier Treated With Energy And Related Methods Of Treatment” (priority 2016, published 2017)
